Reference: patent US9510598B2, “Nitrogen-containing heterocyclic compounds for plant disease control” (BAYER CROPSCIENCE AG, priority 2012, dated 2016)
Read-outs that look alike come from different tables or passages of the source.

Legend:
[1] = format: physicochemical
[2] = system: Septoria tritici; assay: In vivo preventive test on Septoria tritici (leaf spot on wheat); conditions: 500 ppm; wheat plants sprayed 24 hours before contamination; grading 21 to 28 days after contamination vs control plants
Summary of the method: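 Scipion wheat at 1-leaf stage sprayed with compound, controls receiving acetone/tween/DMSO/water vehicle; 24 h later leaves inoculated with Septoria tritici spores (500 000 spores per ml). Efficacy (%) graded versus control plants 21 to 28 days after contamination.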

[3] = system: Sphaerotheca fuliginea; assay: In vivo preventive test on Sphaerotheca fuliginea (powdery mildew on cucurbits); conditions: 500 ppm; gherkin plants sprayed 24 hours before contamination; grading 12 days after contamination vs control plants
Experimental: Gherkin plants (“Vert petit de Paris” variety), sown in starter cups on a 50/50 peat soil-pozzolana substrate and grown at 24° C., are treated at the Z11 cotyledon stage by spraying with the active ingredient prepared as described above. Plants, used as controls, are treated with the mixture of acetone/tween/DMSO/water not containing the active material. After 24 hours, the plants are contaminated by spraying the cotyledons with an aqueous suspension of Sphaerotheca fuliginea spores (100 000 spores per ml). The spores are collected from infected plants. […] Grading (% of efficacy) is carried out 12 days after the contamination, in comparison with the control plants.

[4] = system: Botrytis cinerea; assay: In vivo preventive test on Botrytis cinerea (grey mould); conditions: 500 ppm; gherkin plants sprayed 24 hours before contamination; grading 4-5 days after contamination vs control plants
Experimental: Gherkin plants (“Vert petit de Paris” variety), sown in starter cups on a 50/50 peat soil-pozzolana substrate and grown at 24° C., are treated at the Z11 cotyledon stage by spraying with the active ingredient prepared as described above. Plants, used as controls, are treated with the mixture of acetone/tween/DMSO/water not containing the active material. After 24 hours, the plants are contaminated by spraying the cotyledons with an aqueous suspension of cryopreserved Botrytis cinerea spores (50 000 spores per ml). The spores are suspended in a nutrient solution composed of 10 g/L of PDB, 50 g/L of D-Fructose, 2 g/L of NH4NO3 and 1 g/L of KH2PO4. The contaminated gherkin plants are incubated at 17° C. and at 80% relative humidity. Grading (% of efficacy) is carried out 4-5 days after the contamination, in comparison with the control plants.

[5] = method [a]: HPLC/LC-MS on reversed phase at pH 2.7, 0.1% formic acid in water / acetonitrile, gradient 10% to 95% acetonitrile
[6] = HPLC on reversed phase columns, method [a]: pH 2.7, 0.1% formic acid in water / acetonitrile, linear gradient 10% to 95% acetonitrile
[7] = method [a]: HPLC/LC-MS on reversed phase at pH 2.7, 0.1% formic acid in water / acetonitrile, linear gradient 10% to 95% acetonitrile

log P [1, 5]	log P [1, 6]	chromatographic logP ([1]; pH 2.7)	log P [1, 7]	Structure (SMILES)	% of efficacy (protection) [2]	% of efficacy (protection) [3]	% of efficacy (protection) [4]
2.43[a]				C#Cc1cnc2ccc(C3=NOC(C)(C(=O)NOC(C)C4CC4)C3)cc2c1 (centres unmarked) [compound 471]	97%	98%	89%
	3.29[a]			CC(C)NC(=O)C1(C)CC(c2cc(Cl)c3ncc(Br)cc3c2)=NO1 (centres unmarked) [compound 541]	100%	98%	100%
	3.15[a]			COC1(C(=O)NC(C)C)CC(c2cc(Cl)c3ncc(Br)cc3c2)=NO1 (centres unmarked) [compound 569]	100%	100%	100%
		1.94		CCc1cnc2ccc(C3=NOC(C)(C(=O)NC(C)C)C3)cc2c1 (centres unmarked) [Compound No. 259]	100%	94%	75%
			2.08^[a]	COc1cnc2ccc(C3=NOC(C)(C(=O)NC(C)C)C3)cc2c1 (centres unmarked) [compound 53]	97%	88%	99%
	2.46[a]			Cc1nc(C)c(C(C)NC(=O)C2(C)CC(c3ccc4ncc(Br)cc4c3)=NO2)s1 (centres unmarked) [compound 296]	100%	100%	97%
			2.58^[a]	C#Cc1cnc2ccc(C3=NOC(C)(C(=O)NC4CCC4)C3)cc2c1 (centres unmarked) [compound 120]	100%	94%	100%
			1.26^[a]	C#Cc1cnc2ccc(C3=NOC(C)(C(=O)NCc4cccnc4)C3)cc2c1 (centres unmarked) [compound 103]	75%	78%	98%
	2.58[a]			C#Cc1cnc2ccc(C3=NOC(C)(C(=O)NC(CC)COC)C3)cc2c1 (centres unmarked) [compound 524]	93%	93%	100%
	2.34[a]			CC(NC(=O)C1(C)CC(c2ccc3ncc(Br)cc3c2)=NO1)C1=NOCC1 (centres unmarked) [compound 293]	96%	90%	97%

Second part, the compound before the results:

Structure (SMILES)	log P [1, 5]	log P [1, 6]	chromatographic logP ([1]; pH 2.7)	log P [1, 7]	% of efficacy (protection) [2]	% of efficacy (protection) [3]	% of efficacy (protection) [4]
CCn1cc(CNC(=O)C2(C(F)F)CC(c3ccc4ncc(Br)cc4c3)=NO2)c(C)n1 (centres unmarked) [compound 621]		2.64[a]			97%	97%	83%
CCCn1cc(CNC(=O)C2(OC)CC(c3cc(C)c4ncc(Br)cc4c3)=NO2)c(C)n1 (centres unmarked) [compound 595]		3.27[a]			100%	100%	100%
COC1(C(=O)NCC2COC(C)(C)O2)CC(c2ccc3ncc(Br)cc3c2)=NO1 (centres unmarked) [compound 496]	2.62[a]				100%	100%	99%
CCCn1cc(CNC(=O)C2(C)CC(c3cc(C)c4ncc(Br)cc4c3)=NO2)c(C)n1 (centres unmarked) [compound 534]		3.29[a]			92%	100%	100%
C#Cc1cnc2ccc(C3=NOC(C(=O)NCc4cn(CC)nc4C)(C(F)F)C3)cc2c1 (centres unmarked) [compound 613]		2.39[a]			79%	100%	100%
COC1(C(=O)NCC2COC(C)(C)O2)CC(c2ccc3ncc(I)cc3c2)=NO1 (centres unmarked) [compound 483]	2.73[a]				100%	100%	100%
Cc1cc(C2=NOC(C)(C(=O)NCC3COC(C)(C)O3)C2)cc2cc(Br)cnc12 (centres unmarked) [compound 538]		3.39[a]			100%	100%	100%
